Tested on: mouse Lewis lung cancer
Assay: Survival (Kaplan-Meier) and micro-CT tumour examination in Lewis lung cancer mice (Example 3)
Details: 5 mg/kg, once every 3 days, 7 times, plasmid intravenous, Gefitinib oral
Experimental: To further study the therapeutic effect of the EGFR siRNA plasmid on mouse Lewis lung cancer, after successful model construction of Lewis lung cancer mice, we performed treatment in the following three groups: the EGFR-si plasmid group, Gefitinib group and control plasmid group, respectively. […] The EGFR-si plasmid and control plasmid were administered by intravenous injection, and Gefitinib was administered orally. The dosage in each treatment group was 5 mg/kg, and the administration interval was once every 3 days, for a total of 7 times. After the treatment, we recorded the survival situation of the mice and plotted the Kaplan-Meier survival curve using the Graphpad Prism statistical software.

## COc1cc2ncnc(Nc3ccc(F)c(Cl)c3)c2cc1OCCCN1CCOCC1 [Gefitinib]
  change of lung tumours after the treatment (micro-CT): the tumours generally grew
